From ChEMBL document CHEMBL4414646, “Eutypellacytosporins A-D, Meroterpenoids from the Arctic Fungus Eutypella sp. D-1” (J Nat Prod, 2019)

Tests used:
Format in all cases: functional, cell-based
DU-145 = test: Cytotoxicity against human DU145 cells assessed as reduction in cell viability incubated for 72 hrs by CCK8 assay; conditions: DU-145, 72 h
SW1990 = test: Cytotoxicity against human SW1990 cells assessed as reduction in cell viability incubated for 72 hrs by CCK8 assay; conditions: SW1990, 72 h
Huh-7 = test: Cytotoxicity against human HuH7 cells assessed as reduction in cell viability incubated for 72 hrs by CCK8 assay; conditions: Huh-7, 72 h
PANC-1 = test: Cytotoxicity against human PANC1 cells assessed as reduction in cell viability incubated for 72 hrs by CCK8 assay; conditions: PANC-1, 72 h

Row | Structure (SMILES) | IC50 (DU-145) [µM] | IC50 (SW1990) [µM] | IC50 (Huh-7) [µM] | IC50 (PANC-1) [µM]
1 | C=C1[C@@H](OC(=O)C(C)(C)[C@H](C)O)C[C@H]2C[C@@H]1[C@]21C[C@]2(C[C@H](C)C(=O)O2)O[C@@H]1OCC1=C(/C=C/CCCCC)[C@@H](O)[C@@H]2O[C@@]23C[C@H](O)C(C)(C)O[C@@H]13 | 13.5 | 9.6 | 11.2 | 10.2
2 | C=C1[C@@H](OC(=O)C(C)(C)[C@H](C)O)C[C@H]2C[C@@H]1[C@]21C[C@]2(C[C@H](C)C(=O)O2)O[C@H]1OCC1=C(/C=C/CCCCC)[C@@H](O)[C@@H]2O[C@@]23C[C@H](O)C(C)(C)O[C@@H]13 | 13.4 | 8.2 | 9.6 | 7.5
3 | CCCCC/C=C/C1=C(CO)[C@@H]2OC(C)(C)[C@@H](O)C[C@@]23O[C@H]3[C@@H]1O | > 50 | > 50 | > 50 | > 50
4 | C=C1[C@@H](OC(=O)C(C)(C)[C@H](C)O)C[C@H]2C[C@@H]1[C@]21C[C@@]2(C[C@H](C)C(=O)O2)O[C@H]1OCC1=C(/C=C/CCCCC)[C@@H](O)[C@@H]2O[C@@]23C[C@H](O)C(C)(C)O[C@@H]13 | 11 | 4.9 | 4.9 | 7.9
5 | C=C1[C@@H](OC(=O)C(C)(C)[C@H](C)O)C[C@H]2C[C@@H]1[C@]21C[C@@]2(C[C@H](C)C(=O)O2)O[C@@H]1OCC1=C(/C=C/CCCCC)[C@@H](O)[C@@H]2O[C@@]23C[C@H](O)C(C)(C)O[C@@H]13 | 17.1 | 7.3 | 8.4 | 9.7
